Read-outs that look alike come from different tables or passages of the source.
Columns and labels:
Actinomyces viscosus [1] = assay: Metabolic activity, Biolog phenotype microarray; type: cell-based; settings: A viscosus
Experimental: (§1) The extent of metabolic activity of the tested bacteria in the presence of the above-mentioned acids after 24 hours and 48 hours was investigated through a high throughput phenotype microarray system (PM) for microbial cells (Biolog Inc.). Each PM can contain up to 95 different biochemical compounds (e.g. organic acids) that may act as substrates for bacteria as well as one negative control, not containing the substrates. Microarray plates were used in which the different wells of each plate were pre-loaded (by the manufacturer, Biolog Inc.) with different organic acids to be tested. Each bacterial species was tested using a separate microarray plate. Thus, a single bacterial species was tested with a variety of organic acids on each particular plate. The microarrays are based on redox technology, using cell respiration as a universal reporter. […] The observation of this color change indicates which of the substrates improve the metabolic activity and health of the cells.
(§2) Each bacterial species was collected from blood agar plates (incubated for 48 hours anaerobically at 37° C.) and transferred to an IF-0 Base inoculation fluid (Biolog Inc.), which is a nutritionally poor medium. […] A 1:5 dilution of this suspension was prepared by mixing 3 mL of the 42% transmittance cell suspension with 15 mL of an inoculation fluid (which inoculation fluid was formed by mixing 11.6 mL sterile water, 62.5 mL IF-0 base inoculation fluid and 0.9 mL of the tetrazolium dye “Biolog Redox Dye mix D”), resulting in a final cell density which was equal to 85% transmittance using a BioRad SmartSpec 3000 Photometer. For each of the acids tested, the microarray plate (obtained from the supplier (Biolog Inc.) with acid already present in the relevant wells in powder form) was directly inoculated with 100 μL/well of this 85% transmittance cell suspension.
(§3) All plates were incubated in an anaerobic atmosphere at 37° C. Color changes were measured spectrophotometrically at 492 nm (Thermo Scientific Multiskan Ascent) at 24 hrs and 48 hrs using the same plate at both time points.
(§4) The controls were also carried out three times, as above.

Capnocytophaga sputigena [2] = assay: Metabolic activity, Biolog phenotype microarray; type: cell-based; settings: C sputigena
Experimental: as §1, §2, §3, §4

Streptococcus gordonii = assay: Metabolic activity, Biolog phenotype microarray; type: cell-based; settings: S gordonii
Experimental: as §1, §2, §3, §4

Actinomyces naeslundii [3] = assay: Metabolic activity, Biolog phenotype microarray; type: cell-based; settings: A naeslundii
Experimental: as §1, §2, §3, §4

Streptococcus sanguinis = assay: Metabolic activity, Biolog phenotype microarray; type: cell-based; settings: S sanguinis
Experimental: as §1, §2, §3, §4

Porphyromonas gingivalis [4] = assay: Metabolic activity, Biolog phenotype microarray; type: cell-based; settings: P gingivalis
Experimental: as §1, §2, §3, §4

Streptococcus sobrinus = assay: Metabolic activity, Biolog phenotype microarray; type: cell-based; settings: S sobrinus
Experimental: as §1, §2, §3, §4

Tannerella forsythia = assay: Metabolic activity, Biolog phenotype microarray; type: cell-based; settings: T forsythia
Experimental: as §1, §2, §3, §4

[5] = system: Aggregatibacter actinomycetemcomitans; assay: Metabolic activity, Biolog phenotype microarray; type: cell-based; settings: A actinomycetemcomitans
Experimental: as §1, §2, §3, §4

Streptococcus mitis = assay: Metabolic activity, Biolog phenotype microarray; type: cell-based; settings: S mitis
Experimental: as §1, §2, §3, §4

Streptococcus salivarius = assay: Metabolic activity, Biolog phenotype microarray; type: cell-based; settings: S salivarius
Experimental: as §1, §2, §3, §4

Veillonella parvula = assay: Metabolic activity, Biolog phenotype microarray; type: cell-based; settings: V parvula
Experimental: as §1, §2, §3, §4

Prevotella intermedia = assay: Metabolic activity, Biolog phenotype microarray; type: cell-based; settings: P intermedia
Experimental: as §1, §2, §3, §4

Streptococcus mutans = assay: Metabolic activity, Biolog phenotype microarray; type: cell-based; settings: S mutans
Experimental: as §1, §2, §3, §4

Fusobacterium nucleatum [6] = assay: Metabolic activity, Biolog phenotype microarray; type: cell-based; settings: F nucleatum
Experimental: as §1, §2, §3, §4

Actinomyces naeslundii [7] = settings: A naeslundii, BHI
Experimental: (§6) Late exponential growth phase liquid cultures were prepared by transferring the respective bacterium from blood agar plates to BHI and overnight incubation at 37° C. in an anaerobic atmosphere for A. viscosus, V. parvula, F. nucleatum, P. gingivalis, P. intermedia, T forsythia, A. naeslundii, and C. sputigena, and in a 5% CO2 environment for S. salivarius, S. sanguinis, S. mitis, A. actinomycetemcomitans, S. mutans, S. sobrinus and S. gordonii. Overnight cultures were transferred to BHI and adjusted to a concentration of 1×10^7 CFU/ml (colony forming units per ml) by measuring the optical density at 600 nm (OD600) (BioRad SmartSpec 3000). For each strain, 200 μl of the bacterial suspension was added to a 96-well plate containing 20 μl of the respective carboxylic acids. Final concentrations of the carboxylic acids were set to 5, 10, 20 and 25 μmol/ml. […] Plates were incubated as previously described.
(§7) For each combination of bacterium/carboxylic acid, and for each of their respective controls (i.e. the particular bacterium in the nutritionally rich medium with no carboxylic acid), the optical density was measured at 630 nm (OD630) at 0 h, 24 h and 48 h (Thermo Scientific Multiskan Ascent). Additionally, the OD630 for combinations of bacterium/carboxylic acid grown in a 5% CO2 environment were also measured every hour between 0 h and 9 h.
(§8) The experiment was carried out on three different days (thus providing 3 biological replicas) and on each day the experiment was carried out in quadruple (thus providing 4 technical replicas) for each combination of bacterium with carboxylic acid and for each control. For each day and for each combination, the average (mean) of the values obtained (as detailed above) for the four technical replicas was calculated to provide a single value for each combination on each day.

Actinomyces viscosus [8] = assay: Biofilm growth assay in BHI, crystal violet; type: cell-based; settings: A viscosus
Experimental: (§5) Late exponential growth phase liquid cultures were prepared by transferring the respective bacterium from blood agar plates to BHI and overnight incubation at 37° C. in an anaerobic atmosphere for A. viscosus, V. parvula, F. nucleatum, P. gingivalis, P. intermedia, T. forsythia, A. naeslundii, and C. sputigena, and in a 5% CO2 environment for S. salivarius, S. sanguinis, S. mitis, A. actinomycetemcomitans, S. mutans, and S. gordonii. […] Additionally, for each bacterium tested, a background control, to correct for background staining, was added. This background control contained the bacterium tested and 0.03 weight % chlorhexidine, as an antiseptic. Plates were incubated as previously described. After 48 hrs the supernatant was removed from the wells of the plates. The wells were washed twice with 1×100 μL/PBS (phosphate buffered saline), fixed for 20 minutes with 96% vol. ethanol (96% vol. solution in water) and the biofilm retained at the bottom of the wells was stained with 1 weight % crystal violet (1 weight % solution in water). […] Quantification of the stained biofilm was performed by measuring the absorbance at 630 nm using a Multiskan Ascent microplate reader (Thermo Scientific).

Porphyromonas gingivalis [9] = assay: Biofilm growth assay in BHI, crystal violet; type: cell-based; settings: P gingivalis
Experimental: as §5

Fusobacterium nucleatum [10] = assay: Biofilm growth assay in BHI, crystal violet; type: cell-based; settings: F nucleatum
Experimental: as §5

Porphyromonas gingivalis [11] = settings: P gingivalis, BHI
Experimental: as §6, §7, §8

Capnocytophaga sputigena [12] = settings: C sputigena, BHI
Experimental: as §6, §7, §8

## N[C@@H](CC(=O)O)C(=O)O [L-aspartic acid]
Actinomyces viscosus [1]; 24 hrs
  metabolic activity, OD at 492 nm divided by OD of control (control = 1): 0.9434
Actinomyces viscosus [1]; 48 hrs
  metabolic activity, OD at 492 nm divided by OD of control (control = 1): 0.9275
Capnocytophaga sputigena [2]; 24 hrs
  metabolic activity, OD at 492 nm divided by OD of control (control = 1): 0.7060
Capnocytophaga sputigena [2]; 48 hrs
  metabolic activity, OD at 492 nm divided by OD of control (control = 1): 0.7655
Streptococcus gordonii; 24 hrs
  metabolic activity, OD at 492 nm divided by OD of control (control = 1): 0.8729
Streptococcus gordonii; 48 hrs
  metabolic activity, OD at 492 nm divided by OD of control (control = 1): 0.8488
Actinomyces naeslundii [3]; 24 hrs
  metabolic activity, OD at 492 nm divided by OD of control (control = 1): 0.8814
Actinomyces naeslundii [3]; 48 hrs
  metabolic activity, OD at 492 nm divided by OD of control (control = 1): 0.8283
Streptococcus sanguinis; 24 hrs
  metabolic activity, OD at 492 nm divided by OD of control (control = 1): 0.9451
Streptococcus sanguinis; 48 hrs
  metabolic activity, OD at 492 nm divided by OD of control (control = 1): 0.9195
Porphyromonas gingivalis [4]; 24 hrs
  metabolic activity, OD at 492 nm divided by OD of control (control = 1): 0.8910
Porphyromonas gingivalis [4]; 48 hrs
  metabolic activity, OD at 492 nm divided by OD of control (control = 1): 0.9017
Streptococcus sobrinus; 24 hrs
  metabolic activity, OD at 492 nm divided by OD of control (control = 1): 1.0053
Streptococcus sobrinus; 48 hrs
  metabolic activity, OD at 492 nm divided by OD of control (control = 1): 0.9338
Tannerella forsythia; 24 hrs
  metabolic activity, OD at 492 nm divided by OD of control (control = 1): 0.9565
Tannerella forsythia; 48 hrs
  metabolic activity, OD at 492 nm divided by OD of control (control = 1): 0.9575
[5]; 24 hrs
  metabolic activity, OD at 492 nm divided by OD of control (control = 1): 1.4358
[5]; 48 hrs
  metabolic activity, OD at 492 nm divided by OD of control (control = 1): 1.6253
Streptococcus mitis; 24 hrs
  metabolic activity, OD at 492 nm divided by OD of control (control = 1): 1.0323
Streptococcus mitis; 48 hrs
  metabolic activity, OD at 492 nm divided by OD of control (control = 1): 0.9065
Streptococcus salivarius; 24 hrs
  metabolic activity, OD at 492 nm divided by OD of control (control = 1): 0.9496
Streptococcus salivarius; 48 hrs
  metabolic activity, OD at 492 nm divided by OD of control (control = 1): 0.8503
Veillonella parvula; 24 hrs
  metabolic activity, OD at 492 nm divided by OD of control (control = 1): 1.8448
Veillonella parvula; 48 hrs
  metabolic activity, OD at 492 nm divided by OD of control (control = 1): 2.2760
Prevotella intermedia; 24 hrs
  metabolic activity, OD at 492 nm divided by OD of control (control = 1): 0.9390
Prevotella intermedia; 48 hrs
  metabolic activity, OD at 492 nm divided by OD of control (control = 1): 0.9154
Streptococcus mutans; 24 hrs
  metabolic activity, OD at 492 nm divided by OD of control (control = 1): 0.9715
Streptococcus mutans; 48 hrs
  metabolic activity, OD at 492 nm divided by OD of control (control = 1): 0.8709
Fusobacterium nucleatum [6]; 24 hrs
  metabolic activity, OD at 492 nm divided by OD of control (control = 1): 0.9201
Fusobacterium nucleatum [6]; 48 hrs
  metabolic activity, OD at 492 nm divided by OD of control (control = 1): 0.9448
Actinomyces naeslundii [7]; 5 μmol/ml
  extent of growth, maximal OD630 over 48 hr divided by maximal OD of control (control = 1): 0.8893
Actinomyces naeslundii [7]; 10 μmol/ml
  extent of growth, maximal OD630 over 48 hr divided by maximal OD of control (control = 1): 0.8774
Actinomyces naeslundii [7]; 20 μmol/ml
  extent of growth, maximal OD630 over 48 hr divided by maximal OD of control (control = 1): 0.9021
Actinomyces naeslundii [7]; 25 μmol/ml
  extent of growth, maximal OD630 over 48 hr divided by maximal OD of control (control = 1): 0.8435
Actinomyces viscosus [8]; 5 μmol/ml
  biofilm growth, OD at 630 nm (crystal violet) at 48 hrs divided by OD of control (control = 1): 0.5576
Actinomyces viscosus [8]; 10 μmol/ml
  biofilm growth, OD at 630 nm (crystal violet) at 48 hrs divided by OD of control (control = 1): 0.5650
Actinomyces viscosus [8]; 20 μmol/ml
  biofilm growth, OD at 630 nm (crystal violet) at 48 hrs divided by OD of control (control = 1): 0.5834
Actinomyces viscosus [8]; 25 μmol/ml
  biofilm growth, OD at 630 nm (crystal violet) at 48 hrs divided by OD of control (control = 1): 0.5289
Porphyromonas gingivalis [9]; 5 μmol/ml
  biofilm growth, OD at 630 nm (crystal violet) at 48 hrs divided by OD of control (control = 1): 0.9713
Porphyromonas gingivalis [9]; 10 μmol/ml
  biofilm growth, OD at 630 nm (crystal violet) at 48 hrs divided by OD of control (control = 1): 0.9936
Porphyromonas gingivalis [9]; 20 μmol/ml
  biofilm growth, OD at 630 nm (crystal violet) at 48 hrs divided by OD of control (control = 1): 1.0779
Porphyromonas gingivalis [9]; 25 μmol/ml
  biofilm growth, OD at 630 nm (crystal violet) at 48 hrs divided by OD of control (control = 1): 0.9307
Fusobacterium nucleatum [10]; 5 μmol/ml
  biofilm growth, OD at 630 nm (crystal violet) at 48 hrs divided by OD of control (control = 1): 1.2145
Fusobacterium nucleatum [10]; 10 μmol/ml
  biofilm growth, OD at 630 nm (crystal violet) at 48 hrs divided by OD of control (control = 1): 0.9710
Fusobacterium nucleatum [10]; 20 μmol/ml
  biofilm growth, OD at 630 nm (crystal violet) at 48 hrs divided by OD of control (control = 1): 0.9621
Fusobacterium nucleatum [10]; 25 μmol/ml
  biofilm growth, OD at 630 nm (crystal violet) at 48 hrs divided by OD of control (control = 1): 0.8549
Porphyromonas gingivalis [11]; 5 μmol/ml
  extent of growth, maximal OD630 over 48 hr divided by maximal OD of control (control = 1): 1.0608
Porphyromonas gingivalis [11]; 10 μmol/ml
  extent of growth, maximal OD630 over 48 hr divided by maximal OD of control (control = 1): 1.0376
Porphyromonas gingivalis [11]; 20 μmol/ml
  extent of growth, maximal OD630 over 48 hr divided by maximal OD of control (control = 1): 1.0578
Porphyromonas gingivalis [11]; 25 μmol/ml
  extent of growth, maximal OD630 over 48 hr divided by maximal OD of control (control = 1): 1.0084
Capnocytophaga sputigena [12]; 5 μmol/ml
  extent of growth, maximal OD630 over 48 hr divided by maximal OD of control (control = 1): 0.9521
Capnocytophaga sputigena [12]; 10 μmol/ml
  extent of growth, maximal OD630 over 48 hr divided by maximal OD of control (control = 1): 0.9529
Capnocytophaga sputigena [12]; 20 μmol/ml
  extent of growth, maximal OD630 over 48 hr divided by maximal OD of control (control = 1): 0.9776
Capnocytophaga sputigena [12]; 25 μmol/ml
  extent of growth, maximal OD630 over 48 hr divided by maximal OD of control (control = 1): 0.9489
